Assay: solvent given as SMILES

## CC(C)[N+](=O)[O-]
In CCCCCCC
  solvation free energy, 298 K: -3.81 kcal/mol
In ClC(Cl)(Cl)Cl
  solvation free energy, 298 K: -4.57 kcal/mol
In O
  solvation free energy, 298 K: -3.13 kcal/mol
In c1ccccc1
  solvation free energy, 298 K: -5.07 kcal/mol

## C=C(C)C(=C)C
In CN1CCCC1=O
  solvation free energy, 298 K: -3.55 kcal/mol
In CN(C)C=O
  solvation free energy, 298 K: -3.53 kcal/mol
In O
  solvation free energy, 298 K: 0.4 kcal/mol
In OCCO
  solvation free energy, 298 K: -1.73 kcal/mol
In OCCOCCO
  solvation free energy, 298 K: -2.47 kcal/mol
In OCCOCCOCCO
  solvation free energy, 298 K: -2.49 kcal/mol

## CC(C)Cc1ccc(C(C)C(=O)O)cc1 (centres undefined)
In CC(C)CO
  solvation free energy, 298 K: -13.2 kcal/mol
In CC(C)O
  solvation free energy, 298 K: -13.4 kcal/mol
In CCC(C)O
  solvation free energy, 298 K: -13.2 kcal/mol
In CCCCCCCCCCO
  solvation free energy, 298 K: -13 kcal/mol
In CCCCCCCO
  solvation free energy, 298 K: -13.1 kcal/mol
In CCCCCCO
  solvation free energy, 298 K: -13.2 kcal/mol
In CCCCCO
  solvation free energy, 298 K: -13.1 kcal/mol
In CCCCO
  solvation free energy, 298 K: -13.1 kcal/mol
In CCCO
  solvation free energy, 298 K: -13.2 kcal/mol
In CCO
  solvation free energy, 298 K: -13.1 kcal/mol
In CN(C)C=O
  solvation free energy, 298 K: -13.1 kcal/mol
In CO
  solvation free energy, 298 K: -13.1 kcal/mol
In Clc1ccccc1
  solvation free energy, 298 K: -11.9 kcal/mol
In NC=O
  solvation free energy, 298 K: -10.9 kcal/mol
In O
  solvation free energy, 298 K: -7 kcal/mol

## CCCC(=O)O
In C=CCCCCCCC=C
  solvation free energy, 298 K: -4.39 kcal/mol
In C=CCCCCCCCCCCCCCC
  solvation free energy, 298 K: -3.94 kcal/mol
In O
  solvation free energy, 298 K: -6.34 kcal/mol

## Cc1c[nH]c2ccccc12
In O
  solvation free energy, 298 K: -5.88 kcal/mol

## O=C(c1ccccc1)N(O)c1cccc(Cl)c1
In O
  solvation free energy, 298 K: -10.9 kcal/mol

## CCCN(CC1CC1)c1c([N+](=O)[O-])cc(C(F)(F)F)cc1[N+](=O)[O-]
In O
  solvation free energy, 298 K: -2.45 kcal/mol

## CCC(C)(C)C(=O)OC1CC(C)C=C2C=CC(C)C(CCC3CC(O)CC(=O)O3)C21 (centres undefined)
In CC(=O)OC(C)C
  solvation free energy, 298 K: -25 kcal/mol
In CC(=O)OCC(C)C
  solvation free energy, 298 K: -24.9 kcal/mol
In CCC(C)O
  solvation free energy, 298 K: -25.1 kcal/mol
In CCC(C)OC(C)=O
  solvation free energy, 298 K: -24.9 kcal/mol
In CCCCCCCCO
  solvation free energy, 298 K: -24.8 kcal/mol
In CCCCCCO
  solvation free energy, 298 K: -25 kcal/mol
In CCCCCO
  solvation free energy, 298 K: -25 kcal/mol
In CCCCO
  solvation free energy, 298 K: -25.1 kcal/mol
In CCCCOC(C)=O
  solvation free energy, 298 K: -25 kcal/mol
In CCCO
  solvation free energy, 298 K: -25.1 kcal/mol
In CCCOC(C)=O
  solvation free energy, 298 K: -25 kcal/mol
In CCO
  solvation free energy, 298 K: -25.1 kcal/mol
In CCOC(C)=O
  solvation free energy, 298 K: -25.1 kcal/mol
In COC(C)=O
  solvation free energy, 298 K: -25.1 kcal/mol

## CCOC(=O)c1ccccc1
In O
  solvation free energy, 298 K: -3.74 kcal/mol

## CC12C=CC(C1)C(C)(C)C2 (centres undefined)
In O
  solvation free energy, 298 K: 0.64 kcal/mol

## FC(F)C(F)Oc1ccccc1 (centres undefined)
In O
  solvation free energy, 298 K: -1.29 kcal/mol

## Clc1ccc(-c2cc(Cl)ccc2Cl)cc1
In CCCCCCCCO
  solvation free energy, 298 K: -10.8 kcal/mol

## Fc1c(F)c(F)c(F)c(F)c1F
In C1CCOC1
  solvation free energy, 298 K: -4.5 kcal/mol
In C1COCCO1
  solvation free energy, 298 K: -4.23 kcal/mol
In CC(C)CC(C)(C)C
  solvation free energy, 298 K: -3.53 kcal/mol
In CC(C)OC(C)C
  solvation free energy, 298 K: -4.13 kcal/mol
In CCCCO
  solvation free energy, 298 K: -3.46 kcal/mol
In CCOCC
  solvation free energy, 298 K: -4.35 kcal/mol
In O
  solvation free energy, 298 K: 0.1 kcal/mol

## COS(C)(=O)=O
In O
  solvation free energy, 298 K: -4.87 kcal/mol

## CN1CCNCC1
In O
  solvation free energy, 298 K: -7.77 kcal/mol

## CCC(C)Br (centres undefined)
In C=CCCCCCCCCCCCCCC
  solvation free energy, 298 K: -3.96 kcal/mol
In O
  solvation free energy, 298 K: -0.27 kcal/mol

## CC12CCC(=O)C=C1CCC1C2C(O)CC2(C)C1CCC2(O)C(=O)CO (centres undefined)
In C=CCCCCCCC=C
  solvation free energy, 298 K: -21.7 kcal/mol
In C=CCCCCCCCCCCCCCC
  solvation free energy, 298 K: -20.9 kcal/mol
In O
  solvation free energy, 298 K: -25.4 kcal/mol

## OCC(F)(F)F
In C1COCCO1
  solvation free energy, 298 K: -5.63 kcal/mol
In CC(=O)N(C)C
  solvation free energy, 298 K: -6.81 kcal/mol
In CN(C)C=O
  solvation free energy, 298 K: -6.93 kcal/mol
In O
  solvation free energy, 298 K: -4.31 kcal/mol

## CCc1ccccn1
In O
  solvation free energy, 298 K: -4.33 kcal/mol

## FCCl
In O
  solvation free energy, 298 K: -0.77 kcal/mol
